Laboratory results reported in paper PMC10959927, “Platinum iodido drugs show potential anti-tumor activity, affecting cancer cell metabolism and inducing ROS and senescence in gastrointestinal cancer cells” (Communications Biology, 2024).
Several values for one entry are separate records, joined by “and”; a condition that tells them apart may be missing. Equal entries are not always repeated. Where two headings read alike, the source gives them in different places.

What was measured:
[1] = system: MKN45 cells; test: Cell viability, crystal violet staining; conditions: for Cell Viability without NAC: MKN45 cells, Fig. S6A; for IC50: read-out: IC50 concentration (± SD) at 48 h, 48 h
Procedure: (§1) Cell viability was assessed using a crystal violet-based staining method. […] The cells (2 × 10^5) were seeded in 24-multiwell dishes in 0.5 mL of complete medium and incubated overnight. […] After 48 h, cells were fixed with 1% glutaraldehyde (20–30 min), washed with distilled water, and stained with 0.1% crystal violet. […] IC50 were calculated by using GraphPad Prism (version 8.0). Nonlinear regression was used to fit the data to the log (inhibitor) versus response (variable slope).

[2] = system: PANC1 cells; test: Cell viability, crystal violet staining; conditions: for Cell Viability without NAC: PANC1 cells, Fig. S6A; for IC50: read-out: IC50 concentration (± SD) at 48 h, 48 h
Procedure: as §1

[3] = system: AGS cells; test: Cell viability, crystal violet staining; conditions: for Cell Viability without NAC: AGS cells, Fig. S6A; for IC50: read-out: IC50 concentration (± SD) at 48 h, 48 h
Procedure: as §1

[4] = system: telomeres, 36B4, MT-COX1, MT-CYB DNA of MKN45 cells; test: Oxidized bases (FPG-sensitive lesions) in genome regions by qPCR; assay type: cell-based, human; conditions: MKN45, IC50 concentration 24 h, normalized to control, single replicates
Description: (§2) Total cellular DNA from MKN45 and PANC1 cells was extracted using an NZY Tissue gDNA Isolation Kit (Nzytech, MB13503) following the manufacturer’s instructions and quantified using a Nanodrop (Nanodrop Spectrophotometer ND-1000, ThermoFisher Scientific, Wilmington, DE, USA). We adapted the procedure described by O’Callaghan et al.[76] to measure oxidative DNA damage at telomeres, 36B4 genomic region and at mitochondrial DNA (MT-COX1, MT-CYB). This is a qPCR method based on differences in PCR kinetics between DNA template digested by Formamidopyrimidine DNA Glycosylase (FPG, Cat no. M0240S) and undigested DNA. This enzyme recognizes and cuts 8-oxoguanine, producing apurinic sites that are converted into single-strand breaks by its apurinic sites lyase activity. These single-strand breaks inhibit the PCR, thus, the ΔCT after digesting DNA by […] (Ct digested–Ct undigested) is proportional to the oxidative damage in the amplified region. DNA was incubated with 8 Units of FPG during 3 h in FPG buffer (NEB1, M0240S). The reaction was stopped by incubation at 95 °C for 5 min. qPCR analysis was performed on 40 ng of digested or undigested genomic DNA. Each qPCR was performed in triplicate including no-template controls in a StepOne Real‐time PCR System (Applied Biosystems, 4376357). Target genes (Table 3) were amplified using SYBR Green (Applied Biosystems, MB345). Thermal cycling of the qPCR reaction was initiated with a denaturation step at 95 °C for 10 min. The process consisted of 40 cycles (denaturation at 95 °C for 15 sec, annealing at 60 °C for 30 sec, and elongation at 72 °C for 30 sec). This experiment was repeated three independent times with 10–12 replicates.

[5] = system: telomeres, 36B4, MT-COX1, MT-CYB DNA of PANC1 cells; test: as above; assay type: cell-based, human; conditions: PANC1, IC50 concentration 24 h, normalized to control, single replicates
Description: as §2

[6] = system: PANC1 cells; test: Ratio GSH/GSSG, colorimetric kit; assay type: cell-based, human
Procedure: GSH and GSSG levels were determined in AGS and PANC1 cells after 3 and 24 h of treatment with the compounds (using H2O2 as a positive control) with the Glutathione Colorimetric Detection Kit (ThermoFisher) following the manufacturer’s instructions. Thirty minutes after adding the Colorimetric Detection Reagent and the Reaction Mixture, the absorbance was read at 405 nm. A standard curve was generated with each assay to interpolate the sample results. To measure GSSG, standards and samples must be diluted with the Sample Diluent containing 2-vinylpyridine.

[7] = system: HPDE cells; test: Cell viability, crystal violet staining, non-tumoral cells; conditions: for percentage of viable cells: 48 h
Procedure: as §1

[8] = system: CC2509 fibroblasts; test: as above; conditions: CC2509, 48 h
Procedure: as §1

[9] = system: AGS cells; test: SA-β-Gal histochemical staining; assay type: cell-based, human; conditions: Fig. S4A
Procedure: (§3) SA-β-Gal activity was measured following two different approaches. (i) AGS, MKN45 and PANC1 cells (5 × 10^4) were seeded in 24-multiwell dishes and incubated overnight. […] For flow cytometry cell senescence detection, cells were tripsinized, fixed for 15 min with PFA 4% and stained with the CellEvent Senescense Green Flow Cytometry Assay Kit (C10840, Invitrogen) according to manufacturer’s instructions. CellEvent Senescense Green Probe was used at a 1:500 dilution and fluorescence was detected using the filter (Ex488nm/Em530/30) BL1 with a 4-laser Attune NxT Acoustic Cytometer (Thermo Fisher Scientific). […] After 3 h, the treatments were removed, new supplemented medium was added, and cells were incubated for an additional 24 h. Finally, SA-β-Gal staining was performed using the Senescence Cells Histochemical Staining Kit (CS0030-1KT) according to the manufacturer’s instructions.

[10] = system: MKN45 cells; test: SA-β-Gal activity, CellEvent Senescence Green flow cytometry;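 further: IC50 concentration of each compound relative to untreated control set as 1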; assay type: cell-based, human; conditions: Fig. 3A, replicate values
Procedure: as §3

[11] = system: PANC1 cells; test: as above; assay type: cell-based, human; conditions: Fig. 3A, replicate values
Procedure: as §3

[12] = system: AGS cells; test: as above; assay type: cell-based, human; conditions: Fig. 3A, replicate values
Procedure: as §3

[13] = system: PANC1 cells; test: Clonogenic (CFU) assay after 1, 3, 24 h pre-treatment; assay type: cell-based, human
Procedure: For the clonogenic assay we used two different approaches. […] Then, cells were cultured in a 6-well plate at a very low concentration (2 × 10^3 cells per well) and incubated for 10 days. […] To evaluate the role of ROS in cell proliferation, we supplemented the growth medium with 0.5 mM NAC. After 10 days, the cells were fixed with 1% glutaraldehyde and stained with 0.1% crystal violet. The number of colonies was quantified directly and reflected as CFUs: Colony Forming Units.

[14] = read-out: IC50 concentration (± SD) at 48 h in non-tumoral cell lines

Question: Which “Cell Viability without NAC” value ([1]; dose 10 µM) does the source give for CC(C)[NH][Pt@SP3]([I])([I])[NH]C(C)C [I5, trans-[PtI2(isopropylamine)2]] here?
Answer: 97.9702 and 91.0232 and 100.944

Question: What about the “Cell Viability without NAC” value ([1]; dose 25 µM) of the same molecule?
Answer: 85.8879 and 70.3076 and 69.3928

Question: And the “Cell Viability without NAC” value ([1]; dose 50 µM)?
Answer: 44.0762 and 29.818 and 39.7772

Question: And the “Cell Viability without NAC” value ([1]; dose 75 µM)?
Answer: 32.4358 and 27.3279 and 29.4931

Question: What about the IC50 ([1]; MKN45, NAC (+) 0.5 mM) of the same molecule?
Answer: > 100 µM

Question: What about the IC50 ([1]; MKN45, NAC (-)) of the same molecule?
Answer: 30 µM and 28.7 µM

Question: What about the “Cell Viability without NAC” value ([2]; dose 10 µM) of the same molecule?
Answer: 85.9915 and 83.1095 and 92.9481

Question: And the “Cell Viability without NAC” value ([2]; dose 25 µM)?
Answer: 34.4587 and 38.5831 and 38.2547

Question: What about the “Cell Viability without NAC” value ([2]; dose 50 µM) of the same molecule?
Answer: 18.5972 and 30.025 and 31.7453

Question: And the “Cell Viability without NAC” value ([2]; dose 75 µM)?
Answer: 17.1129 and 21.5975 and 27.2406

Question: And the IC50 ([2]; PANC1, NAC (+) 0.5 mM)?
Answer: > 100 µM

Question: And the IC50 ([2]; PANC1, NAC (-))?
Answer: 18 µM and 20 µM and 18.2 µM

Question: What about the IC25 concentration ([3]; AGS) of the same molecule?
Answer: 15 µM

Question: What about the “Cell Viability without NAC” value ([3]; dose 10 µM) of the same molecule?
Answer: 104.459

Question: What about the “Cell Viability without NAC” value ([3]; dose 50 µM) of the same molecule?
Answer: 35.6312

Question: And the “Cell Viability without NAC” value ([3]; dose 75 µM)?
Answer: 33.3189

Question: What about the IC50 ([3]; AGS, NAC (+) 0.5 mM) of the same molecule?
Answer: > 100 µM

Question: And the IC50 ([3]; AGS, NAC (-))?
Answer: 40 µM and 38.2 µM

Question: What about the “TEL (Fold change - ΔCt TEL), oxidative DNA damage” value ([4]; FPG-digested vs undigested) of the same molecule?
Answer: 0.4976 and 1.204 and 0.863 and 1.649 and 1.472 and 1.233 and 1.0991 and 1.079 and 1.087 and 1.22

Question: What about the “36B4 (Fold change - ΔCt 36B4), oxidative DNA damage” value [4] of the same molecule?
Answer: 1.703 and 1.211 and 0.8373 and 1.374 and 1.447 and 1.358 and 1.5791 and 1.8961 and 1.25 and 1.252 and 1.777

Question: And the “MT-COX1 (Fold change - ΔCt MT-COX1), oxidative DNA damage” value [4]?
Answer: 1.17 and 1.1588 and 1.212 and 1.316 and 0.8751 and 0.7769 and 2.591 and 2.527 and 2.762 and 3.255

Question: What about the “MT-CYB (Fold change - ΔCt MT-CYB), oxidative DNA damage” value [4] of the same molecule?
Answer: 1.053 and 0.8867 and 1.024 and 1.423 and 1.446 and 1.223 and 1.361 and 1.391 and 5.526 and 1.559 and 1.507 and 3.466

Question: What about the “TEL (Fold change - ΔCt TEL), oxidative DNA damage” value ([5]; FPG-digested vs undigested) of the same molecule?
Answer: -0.2993 and -0.2888 and -0.1094 and 0.05784 and 0.7794 and 0.6409 and 1.117 and 1.284 and 1.153 and 1.2407

Question: And the “36B4 (Fold change - ΔCt 36B4), oxidative DNA damage” value [5]?
Answer: 1.4221 and 1.29 and 0.7644 and 2.073 and 2.467 and 2.333 and 2.539 and 4.489 and 2.165 and 1.996 and 1.737

Question: What about the “MT-COX1 (Fold change - ΔCt MT-COX1), oxidative DNA damage” value [5] of the same molecule?
Answer: 1.203 and 1.298 and 1.208 and 1.316 and 1.536 and 0.9948 and 1.085 and 1.109 and 1.083 and 1.329

Question: And the “MT-CYB (Fold change - ΔCt MT-CYB), oxidative DNA damage” value [5]?
Answer: 1.015 and 1.063 and 1.122 and 1.165 and 2.0159 and 1.972 and 2.298 and 2.283 and 3.887 and 4.47 and 3.714 and 6.805

Question: What about the GSH/GSSG ([6]; PANC1, 3, relative to Control = 1) of the same molecule?
Answer: 0.746 and 0.7881 and 0.8512

Question: And the GSH/GSSG ([6]; PANC1, 24, relative to Control = 1)?
Answer: 0.8241 and 0.8337 and 0.9592

Question: And the “percentage of viable cells” value ([7]; dose 2.5 µM)?
Answer: 94.0083% and 103.787% and 91.0112%

Question: And the “percentage of viable cells” value ([7]; dose 5 µM)?
Answer: 95.3512% and 98.9765% and 89.3059%

Question: And the “percentage of viable cells” value ([7]; dose 10 µM)?
Answer: 88.9979% and 69.4985% and 69.7172%

Question: What about the “percentage of viable cells” value ([7]; dose 25 µM) of the same molecule?
Answer: 58.8843% and 42.8352% and 30.2314%

Question: What about the “percentage of viable cells” value ([7]; dose 50 µM) of the same molecule?
Answer: 20.4029% and 27.175% and 15.1157%

Question: And the IC50 [7, 14]?
Answer: 26 µM and 25 µM and 26.8 µM

Question: And the “percentage of viable cells” value ([8]; dose 2.5 µM)?
Answer: 100.938% and 100.862% and 91.106%

Question: And the “percentage of viable cells” value ([8]; dose 5 µM)?
Answer: 83.0553% and 85.5747% and 89.9658%

Question: What about the “percentage of viable cells” value ([8]; dose 10 µM) of the same molecule?
Answer: 93.9868% and 89.8276% and 94.7548%

Question: And the “percentage of viable cells” value ([8]; dose 25 µM)?
Answer: 85.5057% and 58.6494% and 84.1505%

Question: What about the “percentage of viable cells” value ([8]; dose 50 µM) of the same molecule?
Answer: 74.4584% and 49.6552% and 58.3178%

Question: And the “percentage of viable cells” value ([8]; dose 100 µM)?
Answer: 38.4658% and 29.1313% and 33.9772%

Question: What about the IC50 [8, 14] of the same molecule?
Answer: 74.1 ± 5.42 µM

Question: What about the “Fold change % Senescence” value [9] of the same molecule?
Answer: 58.06% and 57.14% and 43.1%

Question: What about the “Fold change % Senescence” value [10] of the same molecule?
Answer: 6.84 fold change and 6.77 fold change and 7.76 fold change

Question: And the “Fold change % Senescence” value [11]?
Answer: 2.58 fold change and 1.93 fold change and 2.21 fold change

Question: What about the “Fold change % Senescence” value [12] of the same molecule?
Answer: 2.4 fold change and 2.38 fold change and 2.1 fold change

Question: What about the CFUs ([13]; PANC1, 1 h pre-treatment at IC50, colonies after 10 days) of the same molecule?
Answer: 176 and 164 and 136

Question: And the CFUs ([13]; PANC1, 3 h pre-treatment at IC50, colonies after 10 days)?
Answer: 104 and 76 and 68
